By EC50 is commonly meant the concentration that produces a half-maximal response. As a reminder, the IC50 is the concentration needed to halve the response being measured.

Active and inactive are the calls of the source.

The text below walks through data of ChEMBL document CHEMBL1201862, “PubChem BioAssay data set” (2004).

Assay [1] addresses Voltage-dependent T-type calcium channel subunit alpha-1H (Homo sapiens, UniProt O95180). Put plainly: Cav3.2 T-type channel inhibitors, cell-based, synthetic library set 1, calcium flux (AID 493022). It is filed as functional. Background: A change in cytosolic calcium serves as a functional read-out for many receptors and channels.
Assay [2] has as its target Glucose-6-phosphate 1-dehydrogenase (Homo sapiens, UniProt P11413). Put plainly: human G6PD enzyme inhibitors, dose response, selectivity assay for P. falciparum G6PD inhibitor project, biochemical, fluorescence (AID 504792). The assay is classed as functional.
Assay [3] has as its target T1, Rac GTPase-activating protein 1 (Homo sapiens, UniProt Q9H0H5).
T1 sequence (Q9H0H5 whole entry): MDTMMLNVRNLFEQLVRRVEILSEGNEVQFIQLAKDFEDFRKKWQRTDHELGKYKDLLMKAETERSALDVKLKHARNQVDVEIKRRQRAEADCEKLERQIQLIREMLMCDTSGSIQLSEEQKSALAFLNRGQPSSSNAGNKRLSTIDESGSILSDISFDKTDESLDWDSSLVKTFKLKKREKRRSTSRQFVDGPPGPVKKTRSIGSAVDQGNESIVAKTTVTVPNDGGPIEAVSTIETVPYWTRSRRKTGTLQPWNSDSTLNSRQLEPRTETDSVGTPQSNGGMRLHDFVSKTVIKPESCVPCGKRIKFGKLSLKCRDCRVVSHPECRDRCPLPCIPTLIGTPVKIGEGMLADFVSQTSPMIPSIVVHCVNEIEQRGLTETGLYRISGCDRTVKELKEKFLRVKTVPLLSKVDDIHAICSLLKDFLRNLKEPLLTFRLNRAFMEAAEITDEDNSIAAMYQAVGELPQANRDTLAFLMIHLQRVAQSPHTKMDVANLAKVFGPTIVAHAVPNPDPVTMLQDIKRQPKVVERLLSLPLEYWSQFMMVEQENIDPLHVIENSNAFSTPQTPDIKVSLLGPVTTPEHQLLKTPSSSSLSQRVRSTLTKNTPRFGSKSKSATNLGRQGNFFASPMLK
The assay is described as follows: MgcRacGAP GTPase-activating activity inhibitors, confirmation, biochemical, ADP Hunter fluorescence, primary and confirmatory (AID 624330). It is filed as functional.

A further assay deals with Hexokinase (Trypanosoma brucei, UniProt Q38C41). Put plainly: Confirmation assay for inhibitors of Trypanosoma brucei hexokinase 1-Analogue-first series. [Related pubchem assays (depositor defined):AID1430, AID1632, AID2516, AID2560, AID2579, AID2600, AID449725, AID492951]. It is filed as functional.
Sequence of Hexokinase (Q38C41 whole entry): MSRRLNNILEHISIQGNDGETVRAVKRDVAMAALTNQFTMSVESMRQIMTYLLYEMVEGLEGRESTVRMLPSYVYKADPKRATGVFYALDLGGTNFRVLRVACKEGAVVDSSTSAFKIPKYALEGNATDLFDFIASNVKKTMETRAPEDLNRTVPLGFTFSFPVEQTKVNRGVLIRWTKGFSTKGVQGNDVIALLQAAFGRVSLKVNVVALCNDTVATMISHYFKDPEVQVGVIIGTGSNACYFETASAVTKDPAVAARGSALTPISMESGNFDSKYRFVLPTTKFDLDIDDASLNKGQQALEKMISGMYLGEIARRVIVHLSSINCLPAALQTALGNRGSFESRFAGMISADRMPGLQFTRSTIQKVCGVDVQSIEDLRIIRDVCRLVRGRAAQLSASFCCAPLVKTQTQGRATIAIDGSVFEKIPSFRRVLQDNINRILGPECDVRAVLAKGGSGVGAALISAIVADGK
For assay [4], the target named is Dual specificity protein phosphatase 3 (Homo sapiens, UniProt P51452). Put plainly: SAR VHR1 Fluorescent Assay for In Vitro dose response studies Set 2. [Related pubchem assays (depositor defined):AID1654, AID1661, AID1878]. The assay is classed as functional.
Sequence of Dual specificity protein phosphatase 3 (P51452 whole entry): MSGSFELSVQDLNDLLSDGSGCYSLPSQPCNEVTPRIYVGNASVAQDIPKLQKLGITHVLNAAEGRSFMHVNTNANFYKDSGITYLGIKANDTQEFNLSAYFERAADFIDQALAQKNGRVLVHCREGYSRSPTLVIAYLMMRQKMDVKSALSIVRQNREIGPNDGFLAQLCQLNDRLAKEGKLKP
The target in assay [5] is T2, Tyrosine-protein phosphatase non-receptor type 7 (Homo sapiens, UniProt P35236).
T2 sequence (P35236 whole entry): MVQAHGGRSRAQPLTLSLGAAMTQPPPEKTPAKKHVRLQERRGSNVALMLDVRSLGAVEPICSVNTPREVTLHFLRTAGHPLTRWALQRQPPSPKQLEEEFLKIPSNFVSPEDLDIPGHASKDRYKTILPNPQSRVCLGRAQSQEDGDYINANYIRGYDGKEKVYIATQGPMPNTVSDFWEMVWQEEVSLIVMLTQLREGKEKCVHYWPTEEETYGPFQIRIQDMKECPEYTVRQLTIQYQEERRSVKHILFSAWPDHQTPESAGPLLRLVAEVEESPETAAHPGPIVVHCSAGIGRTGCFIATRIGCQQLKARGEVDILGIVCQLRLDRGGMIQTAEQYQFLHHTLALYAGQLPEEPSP
Put plainly: SAR analysis of chemical inhibitors of HePTP using a Fluorescent assay - Set 2. [Related pubchem assays (depositor defined):AID1059, AID1077, AID1661, AID2085, AID521]. The assay is classed as functional.

Assay [6] concerns the target Phosphoethanolamine/phosphocholine phosphatase (Homo sapiens, UniProt Q8TCT1). The assay is described as follows: SAR assay for compounds that inhibit PHOSPHO1. [Related pubchem assays (depositor defined):AID1545, AID1565, AID1574].
For assay [7], the target named is T3, Mannose-6-phosphate isomerase (Homo sapiens, UniProt P34949).
T3 sequence (P34949 whole entry): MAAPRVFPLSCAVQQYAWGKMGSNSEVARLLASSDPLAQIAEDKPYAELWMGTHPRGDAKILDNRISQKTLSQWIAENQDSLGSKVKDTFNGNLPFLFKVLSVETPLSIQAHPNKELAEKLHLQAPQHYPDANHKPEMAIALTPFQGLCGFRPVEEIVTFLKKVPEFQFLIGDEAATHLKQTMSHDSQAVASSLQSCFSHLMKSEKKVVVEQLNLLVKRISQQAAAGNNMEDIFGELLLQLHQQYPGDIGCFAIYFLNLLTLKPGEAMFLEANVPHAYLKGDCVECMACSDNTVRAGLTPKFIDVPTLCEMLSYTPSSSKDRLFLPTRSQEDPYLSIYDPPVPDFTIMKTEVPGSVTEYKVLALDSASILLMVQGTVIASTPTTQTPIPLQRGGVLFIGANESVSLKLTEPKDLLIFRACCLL
The assay is described as follows: PMI enzyme inhibitors, confirmation, biochemical, fluorescence intensity (AID 1535).

Assay [8] has as its target G-protein coupled receptor 55 (Homo sapiens, UniProt Q9Y2T6). The assay is described as follows: GPR55 agonists via beta-arrestin recruitment, primary screen, imaging, U2OS cells, beta-arrestin-GFP redistribution (AID 1961). The assay is classed as functional. A general note: Recruitment of arrestin is a read-out of receptor activation apart from second messengers.

Sequence of G-protein coupled receptor 55 (Q9Y2T6 whole entry): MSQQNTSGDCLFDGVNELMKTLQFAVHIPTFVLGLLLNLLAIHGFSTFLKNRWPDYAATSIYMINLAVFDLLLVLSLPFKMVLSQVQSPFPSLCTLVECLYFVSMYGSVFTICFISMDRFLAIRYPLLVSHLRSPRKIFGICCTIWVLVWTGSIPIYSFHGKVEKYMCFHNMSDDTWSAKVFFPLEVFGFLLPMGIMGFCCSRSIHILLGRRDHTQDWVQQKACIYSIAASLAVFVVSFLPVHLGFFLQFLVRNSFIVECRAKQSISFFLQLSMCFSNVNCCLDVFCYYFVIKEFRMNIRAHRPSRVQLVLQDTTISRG
Sequence of Glucose-6-phosphate 1-dehydrogenase (P11413 whole entry): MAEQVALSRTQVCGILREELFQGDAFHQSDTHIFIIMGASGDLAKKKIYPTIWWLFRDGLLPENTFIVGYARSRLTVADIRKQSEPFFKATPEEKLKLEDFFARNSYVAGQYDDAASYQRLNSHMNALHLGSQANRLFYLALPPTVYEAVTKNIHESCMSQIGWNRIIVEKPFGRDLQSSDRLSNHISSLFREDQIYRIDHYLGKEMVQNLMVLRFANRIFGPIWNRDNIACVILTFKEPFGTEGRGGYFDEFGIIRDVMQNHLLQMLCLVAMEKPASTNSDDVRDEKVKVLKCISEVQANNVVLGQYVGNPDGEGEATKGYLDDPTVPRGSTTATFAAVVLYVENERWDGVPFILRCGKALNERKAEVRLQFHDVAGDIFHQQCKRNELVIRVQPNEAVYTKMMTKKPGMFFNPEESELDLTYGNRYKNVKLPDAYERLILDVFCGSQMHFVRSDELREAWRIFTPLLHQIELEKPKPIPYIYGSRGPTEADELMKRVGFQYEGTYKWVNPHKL
Sequence of Voltage-dependent T-type calcium channel subunit alpha-1H (O95180 whole entry): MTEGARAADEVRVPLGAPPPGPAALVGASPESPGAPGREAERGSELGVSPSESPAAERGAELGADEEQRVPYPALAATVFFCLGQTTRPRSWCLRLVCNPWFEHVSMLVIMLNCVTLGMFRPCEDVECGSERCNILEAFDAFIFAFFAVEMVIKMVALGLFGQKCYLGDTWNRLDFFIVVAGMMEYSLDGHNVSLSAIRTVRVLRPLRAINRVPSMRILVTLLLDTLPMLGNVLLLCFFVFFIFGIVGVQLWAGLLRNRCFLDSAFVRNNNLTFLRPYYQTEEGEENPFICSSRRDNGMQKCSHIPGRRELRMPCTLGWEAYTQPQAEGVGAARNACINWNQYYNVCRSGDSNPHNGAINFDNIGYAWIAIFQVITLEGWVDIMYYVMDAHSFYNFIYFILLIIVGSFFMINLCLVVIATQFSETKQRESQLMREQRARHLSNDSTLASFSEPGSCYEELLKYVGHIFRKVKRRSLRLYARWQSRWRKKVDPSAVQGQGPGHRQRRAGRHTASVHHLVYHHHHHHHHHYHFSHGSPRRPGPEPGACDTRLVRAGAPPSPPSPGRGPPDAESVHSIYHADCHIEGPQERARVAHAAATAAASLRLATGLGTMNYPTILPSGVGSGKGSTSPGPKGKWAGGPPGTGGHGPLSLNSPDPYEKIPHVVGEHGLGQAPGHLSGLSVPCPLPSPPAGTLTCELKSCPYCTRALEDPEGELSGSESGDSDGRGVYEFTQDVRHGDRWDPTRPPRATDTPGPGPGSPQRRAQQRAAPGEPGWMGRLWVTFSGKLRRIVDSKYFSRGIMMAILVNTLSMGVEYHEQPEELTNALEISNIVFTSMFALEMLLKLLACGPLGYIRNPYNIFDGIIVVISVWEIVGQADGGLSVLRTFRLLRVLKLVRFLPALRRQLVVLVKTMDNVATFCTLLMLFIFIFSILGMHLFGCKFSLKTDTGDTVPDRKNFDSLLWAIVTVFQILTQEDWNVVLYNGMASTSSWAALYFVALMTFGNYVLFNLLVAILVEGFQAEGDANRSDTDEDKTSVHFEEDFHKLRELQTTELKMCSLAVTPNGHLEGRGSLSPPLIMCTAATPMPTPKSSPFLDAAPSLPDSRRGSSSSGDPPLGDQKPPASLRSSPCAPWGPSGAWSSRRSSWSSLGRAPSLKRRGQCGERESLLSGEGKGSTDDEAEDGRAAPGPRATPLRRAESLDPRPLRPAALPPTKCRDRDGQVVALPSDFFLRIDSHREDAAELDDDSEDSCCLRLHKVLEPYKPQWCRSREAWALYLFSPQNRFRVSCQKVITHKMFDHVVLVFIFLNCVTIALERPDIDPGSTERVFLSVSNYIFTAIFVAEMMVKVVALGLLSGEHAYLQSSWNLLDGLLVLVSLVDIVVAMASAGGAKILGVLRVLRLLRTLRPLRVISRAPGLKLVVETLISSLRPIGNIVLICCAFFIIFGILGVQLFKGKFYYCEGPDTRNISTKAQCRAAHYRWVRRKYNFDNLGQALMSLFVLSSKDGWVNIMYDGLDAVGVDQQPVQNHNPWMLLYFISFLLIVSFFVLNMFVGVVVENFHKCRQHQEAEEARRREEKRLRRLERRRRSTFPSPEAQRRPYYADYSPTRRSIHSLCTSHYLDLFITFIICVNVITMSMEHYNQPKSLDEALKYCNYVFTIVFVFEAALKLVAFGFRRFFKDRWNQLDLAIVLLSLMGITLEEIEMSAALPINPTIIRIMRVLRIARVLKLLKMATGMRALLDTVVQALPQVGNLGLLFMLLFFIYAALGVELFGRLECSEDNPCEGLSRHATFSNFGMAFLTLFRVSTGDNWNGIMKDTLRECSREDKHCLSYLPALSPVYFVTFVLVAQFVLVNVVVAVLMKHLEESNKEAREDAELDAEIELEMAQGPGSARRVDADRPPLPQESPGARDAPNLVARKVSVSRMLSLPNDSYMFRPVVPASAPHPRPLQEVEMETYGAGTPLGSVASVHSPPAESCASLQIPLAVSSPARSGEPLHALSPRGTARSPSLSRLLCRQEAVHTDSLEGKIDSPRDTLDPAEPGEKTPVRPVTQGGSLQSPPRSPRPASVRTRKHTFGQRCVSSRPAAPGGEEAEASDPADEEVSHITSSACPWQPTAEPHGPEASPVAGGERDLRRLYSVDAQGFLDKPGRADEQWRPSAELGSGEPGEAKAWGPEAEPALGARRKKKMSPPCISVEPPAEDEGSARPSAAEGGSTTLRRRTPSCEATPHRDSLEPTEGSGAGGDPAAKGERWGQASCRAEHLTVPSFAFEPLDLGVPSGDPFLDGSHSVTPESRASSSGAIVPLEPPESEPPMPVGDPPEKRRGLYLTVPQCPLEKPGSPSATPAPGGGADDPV
Sequence of Phosphoethanolamine/phosphocholine phosphatase (Q8TCT1 whole entry): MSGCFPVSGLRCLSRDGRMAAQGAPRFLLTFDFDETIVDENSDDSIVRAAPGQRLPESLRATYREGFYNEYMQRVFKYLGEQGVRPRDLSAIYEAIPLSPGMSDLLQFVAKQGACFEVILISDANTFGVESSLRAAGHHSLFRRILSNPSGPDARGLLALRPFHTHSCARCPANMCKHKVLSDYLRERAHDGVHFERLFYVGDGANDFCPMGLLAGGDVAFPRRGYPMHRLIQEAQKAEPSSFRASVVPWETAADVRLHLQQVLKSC

Take `O=C(COc1ccccc1F)Nc1nnc(-c2ccc3ccccc3c2)o1`: the EC50 in assay [1] was 1.8 µM (active).

With `O=C(Cn1sc2ccccc2c1=O)Nc1ccccc1`, the IC50 was 12.7 µM (active) in assay [2], 73.1 µM (active) in assay [3] and 6.69 µM (active) on Hexokinase.

In the case of `COc1cc(C(=S)NCc2cccc(F)c2)ccc1O`, the IC50 was 32.8 µM (active) in assay [4] and 23.4 µM (active) in assay [5].

For `O=c1c2c([N+](=O)[O-])cc([N+](=O)[O-])cc2sn1-c1ccc(OC(F)(F)Cl)cc1`, the IC50 in assay [6] was 0.233 µM (active); in assay [7], 2.14 µM (active).

Turning to `CCN(CC)c1ccc2nc3c4ccccc4c(=O)cc-3oc2c1` [NILE RED], in assay [8], the EC50 was < 0.5 µM (active).
